# Results from patent US20260325465A1, “SHP-1 INHIBITORS FOR TREATING CANCER” (MDX MANAGEMENT LLC, priority 2022, published 2026).
# Entries after “also recorded” stand apart in the source; their conditions may differ.
# B1: IFNγ: type II interferon (protein, UniProt P01579 24-161, looked up)
# Interferon gamma: QDPYVKEAENLKKYFNAGHSDVADNGTLFLGILKNWKEESDRKIMQSQIVSFYFKLFKNFKDDQSIQKSVETIKEDMNVKFFNSNKKKRDDFEKLTNYSVTDLNVQRKAIHELIQVMAELSPAAKTGKRKRSQMLFRG
# Experiments:
# [1] = system: PTP/SHP-1 activity in KPC tumor; test: PTP/SHP-1 activity in KPC tumor in vivo; set-up: species or system murine; settings: therapeutic treatment of KPC tumor
# [2] = system: Human monocyte-derived macrophages; test: Human monocyte-derived macrophage response in tumor milieu configurations; assay type: cell-based; settings: co-cultured with cancer cells (configuration 3)
# Description: Mechanism by which tumor cells inhibit macrophage proinflammatory response in TME was studied. As shown in panel A of FIG. 19, macrophage responses were assayed in a tumor milieu: Human monocyte-derived macrophages (MØ) were cultured alone (configuration 1), cultured in the presence of cancer cells-conditioned medium (50%) that contained cancer cell secreted factors (secretome; configuration 2), or co-cultured with cancer cells (cell “touch” model; configuration 3), or co-cultured with cancer cells that were placed in a transwell (0.4 μm) without “touching” MØ(configuration 4). Macrophages in these settings were treated with proinflammatory stimuli TLR agonist R848 (l g/ml), R848 plus IFNγ (40 ng/ml), or the sting activator MSA-2 (10 μg/ml).
# [3] = system: PTP activity in macrophages; test: PTP activity in macrophages co-cultured with cancer cells and stimulated with IFNγ/LPS or TLR agonists; assay type: cell-based; set-up: concentration or dose not given beside the values; settings: induced by IFNγ/LPS or TLR agonists, with cancer cell ligation, 30 min, 37 °C
# Description: (§1) FIGS. 3A-3E depict modulation of SHP-1 activity in proinflammatory macrophages in cancer. Macrophages co-cultured with cancer cells were stimulated with IFNγ/LPS or TLR agonists (αTLR) comprising CpG, polycytidylic acid (i.e., PolyI:C) and R848 (each 0.4 μg/ml) for 30 min (37 °C) in the presence or the absence of different SHP-1 or SHP-2 inhibitor or activator, followed by cell lysis and assays of PTP activity. FIG. 3A depicts SHP-1 activity regulation mechanisms. […] FIG. 3E depicts that PKCθ negatively regulates SHP-1 activity at a moderate level.
# [4] = system: SHP-1; test: SHP-1 activity in macrophages under proinflammatory stimulation and cancer cell ligation; assay type: cell-based; settings: IFNγ/LPS stimulation, cancer cell ligation
# Description: FIGS. 2A-2G depict that the inhibition of SHP-1 enhances macrophage proinflammatory response, antigen presentation and phagocytosis in a tumor milieu. FIG. 2A and FIG. 2B depict that SHP-1 activity in macrophages is triggered by proinflammatory stimulation and the extracellular cancer cell ligation (“touching”) of macrophages (green bar in FIG. 2A). […] The SHP-2 inhibitor SHP099 (1 μg/ml) was used in assays. FIG. 2C depicts the inhibition of SHP-1 by TPI-1 dose-dependently recovers IFNγ/LPS-induced activation of STAT1 (p-STAT1) and Erk1/2 (p-Erk1/2) de-activated by SHP-1 (red line). FIG. 2D and FIG. 2E depict that the inhibition of SHP-1 in macrophages by TPI-1 enhances production of proinflammatory cytokines (FIG. 2D) and expression of immunogenic antigen presentation machinery (FIG. 2E) by IFNγ/LPS in a tumor milieu. […] The SHP-1 and SHP-2 inhibitors TPI-1 and SHP099, respectively, was used at 1 μg/ml in assays.
# as §1
# In addition to TPI-1, several other SHP-1 inhibitors such as PTP inhibitor-I, PTP inhibitor-III, and recently reported vitamin E (9, 10) and phomoxanthone A and B (P×A and P×B) (11) were tested. Given that PKCθ modulates SHP-1 activity through phosphorylating Ser591 (12, 13), PKCθ inhibitor and activator were also tested in various assays.
# [5] = system: macrophages; test: Macrophage cytokine production under immunosuppressive or proinflammatory stimulation with cancer cell ligation; assay type: cell-based
# From the text: FIGS. 6A-6D depict that the inhibition of SHP-1 promotes anti-tumor effects or pro-tumor effects under different circumstances. FIG. 6A depicts that intratumoral macrophages upregulate expression of iRs (Pir-B, Siglec E, F and G, and SIRPα) along with tumor progression to late-stage large sizes. KPC pancreatic tumors of small sizes (<150 mm^3) and those grown to larger sizes (>800 mm^3) were dissociated to single cells, followed by flow cytometry analyses for cell surface protein expression on macrophages (gated F4/80+). FIG. 6B depicts that the inhibition of SHP-1 alone promotes TME immunosuppression. Excised MC38 solid tumor cubes were treated with SHP-1 inhibitor TPI-1 (100 nM) or vehicle (DMSO) in a cell culture setting. After 24 h, tumor secreting cytokines into the culture medium were assayed by ELISA.
# The SHP-1 activity in non-therapeutic solid tumors is low (see FIGS. 7A-7D), and this low activity inhibits immunosuppressive receptor signaling. […] In parallel experiments, the same SHP-1 inhibitors augmented macrophage responses to the M1 stimuli IFNγ and LPS and enhanced proinflammatory cytokine production.
# [6] = system: TLR7/8 overexpressing pancreatic cancer cell line; settings: stimulation of TLR7/8; cited from earlier work
# [7] = system: malignant melanoma and advanced malignancies; settings: cited from earlier work
# [8] = system: macrophages; test: Macrophage antigen presentation and proinflammatory response in presence of tumor cells with or without iShp1; assay type: cell-based; settings: for pro-inflammatory activation of macrophages: combined with iShp1 (TPI-1), tumor milieu
# Description: FIGS. 16A-16D depicts activation of macrophage proinflammatory response and antigen presentation in a tumor milieu by SHP-1 inhibition (iShp1) combination regimens. FIG. 16A depicts the testing system. FIG. 16B and FIG. 16C depict effects of interferons with or without TPI-1. FIG. 16D depicts effects of various agents including IL-1 family cytokines (IL-1, IL-18), TNFα and TLR ligands combined with TPI-1.
# In vitro macrophages were assayed in the presence of tumor cells that ligate macrophage iRs with or without inhibition of SHP-1 (iShp1) by TPI-1. See the testing system in FIG. 16A.
# [9] = system: SHP-1; test: SHP-1 binding to macrophage iRs with phosphorylated ITIMs; assay type: cell-based; settings: macrophages stimulated
# From the text: Proinflammatory signal-induced Src family TK(s) mediate phosphorylation in the cytoplastic domain ITIMs that dock SHP-1 leading to SHP-1 activation.
# [10] = system: SHP-2; test: SHP-2 binding to macrophage iRs with phosphorylated ITIMs; assay type: cell-based; settings: macrophages stimulated
molecule,measurement,setting,value
Nc1nc2c(ncn2[C@@H]2O[C@@H]3COP(=O)(O)O[C@H]4[C@@H](O)[C@H](n5cnc6c(N)ncnc65)O[C@@H]4COP(=O)(O)O[C@@H]2[C@@H]3O)c(=O)[nH]1 [2′3′-cGAMP],PTP/SHP-1 activity induced in tumor,[1],induced spikes of PTP activities
"Nc1ncn([C@@H]2O[C@H](CO)[C@@H](O)[C@H]2O)c(=O)n1 [Azacitidine (AZA), Azacitidine]",PTP/SHP-1 activity induced in tumor,[1],spikes of SHP-1 activity are induced
COc1cc2cc(C(=O)CCC(=O)O)sc2cc1OC [MSA-2],macrophage proinflammatory response in co-culture with cancer cells,[2],abolishment of proinflammatory response and enhanced immunosuppression with high IL-10 and TGFβ production
O=C1C(=NNc2ccc(S(=O)(=O)O)cc2)C(c2ccc([N+](=O)[O-])cc2)=NN1c1ccccc1 [PHPS1],PTP activity diminished in macrophages,[3],< 10%
CCCCCCCCCCCCCC(=O)O[C@@H]1[C@@H](C)[C@@]2(O)[C@@H](C=C(CO)C[C@]3(O)C(=O)C(C)=C[C@@H]23)[C@@H]2C(C)(C)[C@]12OC(C)=O [PMA],SHP-1 activity in macrophages (effect in words),[4],moderately inhibited SHP-1; also recorded: reduced SHP-1 activity
O=C(CBr)c1ccc(O)cc1 [PTP-I],PTP activity diminished in macrophages,[3],> 70%
same,macrophage production of IL-12 and TNFα,[5]; IFNγ and LPS,dose-dependently augmented macrophage proinflammatory response with increased IL-12 and TNFα
same,macrophage production of IL-10 and TGFβ,[5]; IL-4/13 or IL-10 stimulation,dose-dependently augmented
CCOCc1nc2c(N)nc3ccccc3c2n1CC(C)(C)O [R848],cell proliferation and chemosensitivity,[6],increased cell proliferation and reduced chemosensitivity
same,macrophage proinflammatory response in co-culture with cancer cells,[2],abolishment of proinflammatory response and enhanced immunosuppression with high IL-10 and TGFβ production
CC1(N)CCN(c2cnc(-c3cccc(Cl)c3Cl)c(N)n2)CC1 [SHP099],PTP activity diminished in macrophages,[3],< 10%
"O.O.O.O.O.O.O.O.O.O=C([O-])[C@@H]1[O][Sb]2([O-])([O][Sb]34([OH])[O][C@H]([C@H](O)CO)[C@H]([O]3)[C@H](C(=O)[O-])[O]4)[O][C@H]([C@H](O)CO)[C@@H]1[O]2.[Na+].[Na+].[Na+] [SSG, sodium stibogluconate]",effect against tumor development,"[7]; combination with interferons, with or without chemotherapy",no effect was seen against tumor development
same,"most common toxic side-effects, share of patients","[7]; thrombocytopenia, elevated serum lipase, fatigue, fever, chills, anemia, hypokalemia, pancreatitis, skin rash",up to 68 % of patients
CC(C)[C@@](C)(O)[C@@H]1CN(c2nc(-c3[nH]nc4ncccc34)c(F)cc2Cl)CCN1 [VTX27],SHP-1 activity in macrophages (effect in words),[4],increased SHP-1 activity
IFNα,antigen presentation and proinflammatory response,"[8]; alone, without and with iShp1 (TPI-1)",did not induce antigen presentation or proinflammatory response
IL-1β: IL-1 family cytokine,pro-inflammatory activation of macrophages,[8],exhibited capacities of pro-inflammatory activation of macrophages
IL-4: immunosuppressive cytokine,binding of SHP-1 to iR ITIMs,[9],leads to binding of SHP-1
same,binding of SHP-2 to iR ITIMs,[10],SHP-2 binding is dominated
IL-6: activating cytokine,binding of SHP-1 to iR ITIMs,[9],SHP-1 binding occurs exclusively under proinflammatory conditions
IL-10: immunosuppressive cytokine,binding of SHP-1 to iR ITIMs,[9],leads to binding of SHP-1
same,binding of SHP-2 to iR ITIMs,[10],SHP-2 binding is dominated
IL-18: IL-1 family cytokine,pro-inflammatory activation of macrophages,[8],exhibited capacities of pro-inflammatory activation of macrophages
Phomoxanthone A [Phomoxanthone A (PXA)],SHP-1 activity in macrophages (effect in words),[4],"dose-dependently, moderately inhibited SHP-1 activity"
TGFβ: immunosuppressive cytokine,binding of SHP-1 to iR ITIMs,[9],leads to binding of SHP-1
same,binding of SHP-2 to iR ITIMs,[10],SHP-2 binding is dominated
TNFα,binding of SHP-1 to iR ITIMs,[9],SHP-1 binding occurs exclusively under proinflammatory conditions
same,pro-inflammatory activation of macrophages,[8],exhibited capacities of pro-inflammatory activation of macrophages
lipopolysaccharide [LPS],binding of SHP-1 to iR ITIMs,[9],SHP-1 binding occurs exclusively under proinflammatory conditions
pervanadate,PTP activity diminished in macrophages,[3],> 70%
polycytidylic acid [PolyIC],binding of SHP-1 to iR ITIMs,[9],SHP-1 binding occurs exclusively under proinflammatory conditions
B1,binding of SHP-1 to iR ITIMs,[9],SHP-1 binding occurs exclusively under proinflammatory conditions
same,antigen presentation,[8]; plus iShp1 (TPI-1),significantly increased antigen presentation
same,proinflammatory cytokine production,[8]; plus iShp1 (TPI-1),did not elicit proinflammatory cytokine production
